Measured values from article PMC11428593 (Antibiotics, 2024).
Converted amounts (≈) assume the structure as drawn.

Legend:
Assay type in all cases: cell-based, Staphylococcus aureus
[1] = system: MRSA USA300LAC; assay: MIC by broth microdilution (CLSI); conditions: Staphylococcus aureus, MRSA, 16 h
Method: The MIC values of the alkyl pyridinol derivatives against the S. aureus strain ATCC 25923, MRSA strains ATCC 33591, ATCC BAA-44, and USA300LAC, as well as the P. aeruginosa strain ATCC 27853, were determined by following the CLSI guidelines for the broth microdilution antibiotic sensitivity testing protocol. In brief, the overnight cultures were diluted into Mueller Hinton Broth (MHB) to a final inoculum concentration of 5 × 10^5 CFU/mL (O.D600nm = 0.00001) and dispensed into a 96-well polystyrene plate (Alkali Scientific, Fort Lauderdale, FL, USA). Alkyl pyridine compounds were diluted into inoculated MHB to the indicated concentrations from stock solutions that would allow for DMSO concentrations below 5%, resulting in a total volume of 200 μL per well. The plates were subsequently incubated at 37 °C for 16 h at 300 rpm. The MIC values, which are defined as the lowest compound concentration that inhibited growth, were determined from three biological replicates.

[2] = system: S. aureus strain USA300LAC established biofilm; assay: Biofilm eradication assay (crystal violet); conditions: at or below 4× MIC, 24 h, in words
Method: (§1) The establishment of a bacterial biofilm usually begins with pathogen attachment to biotic and abiotic surfaces, and S. aureus is notorious for its ability to form biofilms on surfaces, such as implants and catheters, which presents a unique treatment challenge.
(§2) Overnight cultures of S. aureus strain USA300LAC were diluted into fresh TSB to an OD600nm = 0.001 and incubated aerobically at 37 °C until the mid-log phase. (A) To detect effects on biofilm formation, cultures were diluted to an OD600nm = 0.0001 in the presence and absence of JC-01-074 and vancomycin at concentrations of 0.5–4× MIC, respectively. (B) To detect effects on biofilm eradication, cultures were diluted to an OD600nm = 0.0001 and incubated under static conditions for 24 h, after which planktonic cells were removed, and the preformed biofilms were washed twice with PBS. […] Biofilm mass was quantified after 20 h via crystal violet staining. One-way ANOVA, Dunnett’s multiple-comparison test (* p < 0.05, ** p < 0.01); (n = 3, ±S.D.).
The overnight USA300LAC cultures were diluted 1000-fold into the TSB media and incubated under shaking conditions at 37 °C until the mid-log phase. […] After 24 h of incubation, biofilm eradication was assessed via CV staining at 595 nm in a Tecan 200 Infinite Pro microplate reader (Tecan, Morgan Hill, CA, USA).

[3] = system: S. aureus strain USA300LAC biofilm; assay: Inhibition of biofilm formation (crystal violet); conditions: up to 4× MIC, in words
Method: as §1, §2
The overnight USA300LAC cultures were diluted 1000-fold into the fresh TSB media and incubated under shaking conditions at 37 °C until the mid-log phase. The cultures were subsequently diluted to approximately 4 × 10^6 CFU/mL and dispended into 96-well polystyrene plates (Alkali Scientific, Fort Lauderdale, FL, USA) containing DMSO (control), vancomycin (0.5–4× MIC), or the indicated alkyl pyridinol compounds (0.5–4× MIC) and sealed with a breath-easy membrane (Fisherbrand, Waltham, MA, USA). The peripheral wells were filled with PBS to limit evaporation. The plates were incubated without agitation at 37 °C for 24 h, following which the planktonic cells were removed. The biofilms were washed twice with PBS, stained with 0.1% crystal violet (CV) for 15 min, and washed again twice with PBS to remove the unbound CV dye. CV bound to biofilm cells was extracted with 30% (v/v) glacial acetic acid, and the O.D.595nm was determined.

[4] = system: S. aureus strain USA300LAC; assay: Checkerboard assay with JC-01-074 (FIC index); conditions: MHB, 37 °C, 20 h, antibiotic combined with JC-01-074
Method: Therefore, we tested whether the membrane-disrupting effects of JC-01-074 could increase the sensitivity of the S. aureus strain USA300LAC to antibiotics of different classes; for instance, by facilitating their uptake into the cytoplasm. […] Antibiotic concentrations were prepared by the microbroth dilution in MHB based on their MIC values (Table 1) to obtain the final concentrations as outlined in the 96-well plate scheme for each antibiotic tested (Supplementary Figure S3). Overnight USA300LAC cultures were diluted to 5 × 10^5 CFU/mL in MHB, and the growth was recorded at 37 °C and 200 rpm for 20 h in the presence and absence of the indicated antibiotic.
FICs were calculated as the ratio of the MIC of the antimicrobial in combination with the MIC of the antimicrobial alone. Interactions were categorized as synergistic (<0.5), additive or no interaction (0.5–2), and antagonistic (>2). FICs were calculated from three biological replicates.
Following previous studies, the checkerboard assay was employed to determine whether JC-01-074 had synergistic effects in combination with members of different antibiotic classes. The indicated antibiotics tested in combination were first serially diluted two-fold in MHB on a longitudinal axis in a 96-well polystyrene plate. JC-01-074 was then serially diluted two-fold across the 96-well plate horizontal axis. The plates were inoculated with USA300LAC to a final inoculum concentration of 5 x10^5 CFU/mL (O.D.600nm = 0.0001) and incubated overnight at 37 °C for 20 h. The growth was measured at 600 nm in a Tecan 200 Infinite Pro microplate reader. The fractional inhibitory concentration was calculated as follows:FIC = MICJC-01-074 + antibiotics/[…]
The classification of interactions was based on the FIC index: interactions were categorized as synergistic (FIC ≤ 0.5), additive/no interaction (FIC 0.5–2.0), and antagonistic (FIC > 2.0).

## CN[C@H](CC(C)C)C(=O)N[C@H]1C(=O)N[C@@H](CC(N)=O)C(=O)N[C@H]2C(=O)N[C@H]3C(=O)N[C@H](C(=O)N[C@H](C(=O)O)c4cc(O)cc(O)c4-c4cc3ccc4O)[C@H](O)c3ccc(c(Cl)c3)Oc3cc2cc(c3O[C@@H]2O[C@H](CO)[C@@H](O)[C@H](O)[C@H]2O[C@H]2C[C@](C)(N)[C@H](O)[C@H](C)O2)Oc2ccc(cc2Cl)[C@H]1O [Vancomycin, reference compound]
[1]
  MIC: 1 µg/mL (≈ 0.69 µM)
[2]
  eradication of established biofilms: neither JC-01-074 nor vancomycin successfully reduced established biofilms
[3]
  inhibition of biofilm formation: failed to significantly inhibit biofilm formation
[4]
  interaction with JC-01-074 (sum of FIC values): additive (additive/no interaction (FIC 0.5–2.0))
